Earlier results as cited in patent publication US20240050452A1, “USE OF C[…] THE TREATMENT OF SEIZURES ASSOCIATED WITH EPILEPSY SYNDROMES IN PATIENTS TAKING BRIVARACETAM” (GW Research Limited, priority 2020, published 2024).

Tested on: seizure frequencies
Details: increasing CBD dose combined with a constant BRV dose; seizure types not disclosed

C=C(C)[C@@H]1CCC(C)=C[C@H]1c1c(O)cc(CCCCC)cc1O [CBD, cannabidiol]
effect on seizure frequencies: reductions in seizure frequencies
